# Literature values as cited in patent US20200246414A1, “COMPOSITIONS AND METHODS FOR THE TREATMENT OF CONSTIPATION AND OTHER AILMENTS OF THE GASTROINTESTINAL SYSTEM” (K.L.R.M., LLC, priority 2019, published 2020).
# Test system: isolated gastric cells
# Conditions: suspension of isolated gastric cells
row,Structure (SMILES),mucus secretion / mucus release
1,CCCOc1ccccc1-c1nc2[nH]nnc2c(=O)[nH]1 [M and B 22948],increased the mucus release
2,CC(=O)N[C@H](C(=O)O)C(C)(C)SN=O (racemic) [S-nitroso-N-acetylpenicillamine],stimulated mucus secretion
3,O=[N+]([O-])O[C@H]1CO[C@H]2[C@@H]1OC[C@H]2O[N+](=O)[O-] [isosorbide dinitrate],stimulated mucus secretion
4,CCCC(=O)Nc1nc2c(ncn2C2O[C@H]3COP(=O)(O)O[C@@H]3[C@@H]2OC(=O)CCC)c(=O)[nH]1 (stereo partly shown) [Dibutyryl cyclic GMP],increased the mucus release
